The values below come from patent US20070270350A1, “Methods and Compositions for the Prevention and Treatment of Inflammatory Diseases or Conditions” (MUSC FOUNDATION FOR RESEARCH DEVELOPMENT, priority 2003, published 2007).

Data set [1] has as its system iNOS. Description: LPS-induced iNOS expression and iNOS promoter activity in primary astrocytes (AICAR). The format is cell-based, rat. The following applies: GGPP 10 μM, FPP 10 μM, mevalonate 10 mM with AICAR 1 mM. The procedure: Immunoblot Analysis: Cells were harvested in ice-cold lysis buffer (50 mM Tris-HCl, pH 7.4, containing 50 mM NaCl, 1 mM EDTA, 0.5 mM EGTA, 10% glycerol and protease inhibitor cocktail) and protein was estimated using Bradford reagent (Bio-Rad, USA). Fifty microgram of total protein/lane was separated by SDS-PAGE and blotted to nitrocellulose (Amersham Pharmacia Biotech). Blots were blocked for 1 h in 5% nonfat dry milk-TBS-0.1% Tween 20 and incubated overnight with primary antibody (1:1000) in 5% BSA-TBS-0.1% Tween 20 at 4° C. This was followed by incubation of 1 h with appropriate secondary peroxidase conjugated antibody (1:10,000, Sigma). Immunoreactivity was detected using the enhanced chemiluminescence detection method according to the manufacturer's instructions (Amersham Pharmacia Biotech) and subsequent exposure of the membrane to X-ray film. Antisense experiments: To decrease the levels of endogenous AMPK, astrocytes were pretreated for 48 h with 25 μm (of phosphothiorated antisense (AS) oligonucleotide ([NT]) directly against both the ? α1 and α2 ? subunits of AMPK (Culmsee et al., 2001) ? ? ? missense (MS) oligonucleotide ([NT]) was used in control cultures. Oligonucleotides were transfected with OligofectamineTM reagent as per manufacturer's instructions. Northern blot, gene array analysis and RT-PCR for cytokines expression: Total RNA was extracted with Trizol (Gibco) according to the manufacturer's protocol. Northern blot for iNOS was performed with 15 μg of RNA per reaction as described previously (Pahan et al., 1997). β-actin was used as control for RNA loading. Gene expression array for inflammatory cytokines (TNFα, IL-1β, IL-6 and IFN-γ) was used according to the manufacturer's protocol (Superarray). Signal quantitation was determined using imaging densitomter (Bio-Rad Lab, Hercules, Calif.). For RT-PCR, RNA was isolated from treated rat brain cerebral cortex by extracting in Trizol as above. cDNA was prepared from 5 μg of total RNA using poly dT as a primer and Moloney murine leukemia virus reverse transcriptase (Promega) as per manufacturer's instructions. 2 μl of cDNA was used to amplify the following products [given as product name, expected size, and forward (F) and reverse (R) primers used]: iNOS, 730 bp. ([NT]-1β, 623 bp. ([…]-α, 473 bp. ([…], 528 bp. […] Transcriptional assays: Primary astrocytes or microglial cell line (BV2) were transiently transfected with NF- ? B-or iNOS-luciferase reporter gene with ? -galactosidase in the presence or absence of dominant negative AMPKα2 or HA-IKK ? by lipofectamine-2000 (astrocytes) and lipofectamine-Plus (BV2, Invitrogen) according to the manufacturer instructions. pcDNA3 was used to normalize all groups to equal amounts of DNA. Luciferase activity was determined using a luciferase kit (Promega).

For data set [2] the following is noted: cited from earlier work.
Data set [3] relates to iNOS. Description: LPS/IFN-induced NO production and iNOS gene expression in primary astrocytes. The format is cell-based, rat.
Data set [4] has as its system iNOS. Description: LPS/IFN-induced NO production and iNOS expression in C6 glioma cells. The class given is cell-based, rat. Particulars: exogenous glycosphingolipid with D-PDMP. The procedure: C6 rat glioma cells obtained from ATCC were maintained in Dulbecco's modified Eagle's medium (DMEM) (GIBCO, CA) containing 10% fetal bovine serum (FBS) (GIBCO) and 10 ? g/ml gentamicin. All the cultured cells were maintained at 37° C. in 5% CO2/95% air. At 80% confluency, the cells were incubated with serum free DMEM medium for 24 h prior to the incubation with LPS/IFN ? and other chemicals. Assay for NO production. Cells were cultured in 12-well plastic tissue culture plates. After the appropriate treatment, production of NO was determined by an assay of the culture supernatant for nitrite (Green et al., 1982). Briefly, 100 μl of culture supernatant was allowed to react with 100 μl of Griess reagent. The optical density of the assay samples was measured spectrophotometrically at 570 nm. Nitrite concentrations were calculated from a standard curve derived from the reaction of NaNO2 in fresh media. Western Blot Analysis. […] The protein concentration of samples was determined with the detergent compatible protein assay reagent (Bio-Rad Laboratories, CA) using bovine serum albumin (BSA) as the standard. Sample was boiled for 3 min with 0.1 volumes of 10% O-mercaptoethanol and 0.5% bromophenol blue mix. Fifty μg of total cellular protein was resolved by electrophoresis in 8 or 12% polyacrylamide gels, electro-transferred to polyvinylidene difluoride (PVDF) filter and blocked with Tween 20 containing Tris-buffered saline [TBST; 10 mM Trizma base (pH 7.4), 1% Tween 20, and 150 mM NaCl] with 5% skim milk. After incubation with antiserum against iNOS (BD PharMingen, CA), or hRas (Upstate Biotechnology, CA), or phospho-specific MAPK (p42/44) (Signal Transduction), in PVDF buffer for 2 h at room temperature, the filters were washed 3 times with TBST buffer and then incubated with horseradish peroxidase conjugated anti-rabbit or mouse IgG for 1 h. The membranes were autoradiographed by using ECL-plus (Amersham Pharmacia Biotech) after washing with TBST buffer. RT-PCR amplification. […] PCR amplification was conducted in 25 ? l of reaction mixture with 1.0 ? l of cDNA, […] and under the manufacturer's Taq polymerase conditions (Takara, […] Shuzo Co. Ltd, Japan). The sequence of primers used for PCR amplification are as follows; iNOS, (Forward-[NT], Reverse-[NT]), GalT-2 (Forward-[NT], Reverse-[NT]), GAPDH (Forward-[NT], Reverse-[NT]).

For a further data set, the system named is small GTPase Ras. The data set is described as follows: Quantification of Ras activation (GST-Raf-1 Ras binding domain). The format is cell-based, rat. Particulars: exogenous LacCer with D-PDMP. The procedure:
Quantification of Ras Activation. After stimulation, primary astrocytes in 6 well plates were washed with PBS and lysed in membrane lysis buffer (MLB; 0.5 ml of 25 mM HEPES, pH7.5, 150 mM NaCl, 1% Igepal CA-630, 0.25% sodium deoxycholate, 10% glycerol, 10 mM MgCl2, 1 mM EDTA, 25 mM NaF, 1 mM of sodium orthovanadate, and EDTA free Complete™ protease inhibitor cocktail). After centrifugation (5,000×g) at 4° C. for 5 min, supernatant was used for Ras activation assay. One hundred μg of supernatant was used for binding with agarose conjugated Ras-binding domain (RBD) of Raf-1 which was expressed in BL21 (Invitrogen) Escherichia coli strain transformed by pGEX-2T-GST-RBD in the presence of 0.1 mM of IPTG as described previously (Herrmann et al., 1995). The binding reaction was performed at 4° C. for 30 min in MLB. Following washing with MLB three times, Ras-RBD complex were denatured by adding of 2×SDS sample buffer. Ras protein was identified by western immunoblot analysis with Ras antibodies from Upstate Biotechnology.

The next data set concerns ERK1/2. The data set is described as follows: ERK1/2 phosphorylation by immunoblot after LPS/IFN. The format is cell-based, rat. Particulars: exogenous LacCer with D-PDMP. The procedure: (§1) Western Blot Analysis. For iNOS protein, the cells were washed with cold Tris buffered saline (TBS; 20 mM Trizma base, and 137 mM NaCl, pH 7.5), lysed in 1×SDS sample loading buffer (62.5 mM Trizma base, 2% w/v SDS, 10% glycerol), following sonication and centrifugation at 1,5000×g for 5 min, the supernatant was used for the iNOS western immunoblot assay. The protein concentration of samples was determined with the detergent compatible protein assay reagent (Bio-Rad Laboratories, CA) using bovine serum albumin (BSA) as the standard. Sample was boiled for 3 min with 0.1 volumes of 10% O-mercaptoethanol and 0.5% bromophenol blue mix. Fifty μg of total cellular protein was resolved by electrophoresis in 8 or 12% polyacrylamide gels, electro-transferred to polyvinylidene difluoride (PVDF) filter and blocked with Tween 20 containing Tris-buffered saline [TBST; 10 mM Trizma base (pH 7.4), 1% Tween 20, and 150 mM NaCl] with 5% skim milk. After incubation with antiserum against iNOS (BD PharMingen, CA), or hRas (Upstate Biotechnology, CA), or phospho-specific MAPK (p42/44) (Signal Transduction), in PVDF buffer for 2 h at room temperature, the filters were washed 3 times with TBST buffer and then incubated with horseradish peroxidase conjugated anti-rabbit or mouse IgG for 1 h. The membranes were autoradiographed by using ECL-plus (Amersham Pharmacia Biotech) after washing with TBST buffer.
(In general: Immunoblotting shows a protein as a band on a membrane.)

A further data set relates to NF-κB. The data set is described as follows: NF-κB reporter, gel shift and IκB phosphorylation after LPS/IFN. The class given is cell-based, rat. How it is done: as §1
Nuclear Extraction and Electrophoretic mobility shift assay. Nuclear extracts from cells (1×10^7 cells) were prepared using previously published method (Dignam et al., 1983) with slight modification. Cells were harvested, washed twice with ice-cold TBS, and lysed in 400 μl of buffer A containing, 10 mM KCl, 2 mM MgCl2, 0.5 mM dithiothreitol, protease inhibitor cocktail (Sigma), and 0.1% Nonidet P40 in 10 mM HEPES, pH 7.9 for 10 min on ice. Following centrifugation at 5,000×g for 10 min, the pelleted nuclei were washed with buffer A without Nonidet P40, and re-suspended in 40 μl of buffer B containing 25% (v/v) glycerol, 0.42 M NaCl, 1.5 mM MgCl2, 0.2 mM EDTA, 0.5 mM dithiothreitol, and Complete™ protease inhibitor cocktail (Roche) in 20 mM HEPES, pH7.9 for 30 min on ice. The lysates were centrifuged at 15,000×g for 15 min and the supernatants containing the nuclear proteins were stored at −70° C. until use. Ten μg of nuclear proteins was used for the electrophoretic mobility shift assay for detection of AP-1, NFκB, and C/EBP DNA binding activities. DNA-protein binding reactions were carried out at room temperature for 20 min in 10 mM Trizma base (pH 7.9), 50 mM NaCl, 5 mM MgCl2, 1 mM EDTA, 1 mM dithiothreitol, 1 μg poly (dl-dC), 5% (v/v) glycerol, and approximately 0.3 pmol of NFκB (Santa Cruz Biotech) labeled with DIG-ddUTP using terminal deoxynucleotidyl transferase (Roche). Protein-DNA complexes were resolved from protein-free DNA in 5% polyacrylamide gels at room temperature in 50 mM Tris, pH 8.3, 0.38 M glycine, and 2 mM EDTA, and electroblotted onto positively charged nylon membranes. The chemiluminescence detection method for DIG-labeled probes is identical to the method described for the non-isotopic northern blot analysis in the preceding.
Transient Transfections and Reporter Gene Assay. 3×10^5 cells/well were cultured in 6-well plates for one day before the transfection. Transfection was performed with plasmid concentration constant (2.5 μg/transfection) and 8 μl of Fugene transfection reagent (Roche Molecular Biochemicals). One day after transfection, the cells were placed in serum free media for overnight. Following appropriate treatment, the cells were washed with phosphate buffered saline (PBS), scrapped, and then resuspended with 100 μl of lysis buffer (40 mM of Tricine pH 7.8, 50 mM of NaCl, 2 mM of EDTA, 1 mM of MgSO4, 5 mM of dithiothreitol, and 1% of Triton X-100). After incubation in room temperature for 15 min with occasional vortexing, the samples were centrifuged. […]

With `CC(C)=CCC/C(C)=C/CC/C(C)=C/COP(=O)(O)OP(=O)(O)O` [FPP, farnesyl pyrophosphate], in the data set with iNOS [1], the “effect on inhibitory effect of AICAR on LPS induced iNOS-luciferase activity” value (“effect on inhibitory effect of AICAR” below) is listed as “did not reverse”.

For `CC(C)=CCC/C(C)=C/CC/C(C)=C/CC/C(C)=C/COP(=O)(O)OP(=O)(O)O` [GGPP, geranylgeranyl pyrophosphate], the “effect on inhibitory effect of AICAR” value with iNOS [1] is reported as “did not reverse”.

Regarding `CCCCN1CC(O)C(O)C(O)C1CO` [Miglustat, 1,5-(butylimino)-1,5-dideoxy-D-glucitol], the solubility in water result in data set [2] was “soluble”.

Consider `CC(O)(CCO)CC(=O)O` (centres unmarked) [mevalonate], for which, in the data set with iNOS [1], the “effect on inhibitory effect of AICAR” value is listed as “did not reverse”.

For lactosylceramide [LacCer], the “effect on D-PDMP mediated inhibition of iNOS gene expression” value with iNOS [3] (LacCer 5 and 10 μM with D-PDMP 50 μM before LPS/IFN) is “blunted”. In addition, the “effect on PD98059 inhibition of iNOS gene expression” value in the data set with iNOS [3] (exogenous LacCer with PD98059) was “no effect”. Also, the “effect on D-PDMP mediated inhibition of NO production” value in the data set with iNOS [3] (glycosphingolipid 5 and 10 μM added with D-PDMP 50 μM, 0.5 hr before LPS/IFN, 24 hrs) is “blunted”. Also, in the data set with iNOS [4], the “effect on D-PDMP inhibition of NO production” value is “reversed”; the “effect on D-PDMP inhibition of iNOS mRNA and protein expression” value is given as “reversed”. Moreover, in the data set on small GTPase Ras, the “effect on D-PDMP reduction of Ras activation” value was “fully reversed”. For the same molecule, the “effect on D-PDMP inhibition of ERK 1/2 phosphorylation” value with ERK1/2 is recorded as “reversed”. Moreover, the “levels of phosphorylated IκB” value in the data set with NF-κB (LacCer added to D-PDMP) was “increased”. In the data set on NF-κB (exogenous LacCer with D-PDMP), the “effect on D-PDMP inhibition of NF-κB DNA binding activity” value is “reversed” and the “effect on D-PDMP inhibition of κB-repeat luciferase activity” value is “effectively bypassed”.
